B1: IL-4: human recombinant IL-4 (Euroclone), used at 20 ng/ml (protein)
chain: HKCDITLQEIIKTLNSLTEQKTLCTELTVTDIFAASKNTTEKETFCRAATVLRQFYSHHEKDTRCLGATAQQFHRHKQLIRFLKRLDRNLWGLAGLNSCPVKEANQSTLENFLERLKTIMREKYSKCSS

Legend:
[1] = tested on: Primary (adherent) cells from human colon cancer specimens; assay: Viability of primary (adherent) colon cancer cells exposed to drugs; type: cell-based; conditions: cisplatinum 300 ng/ml, oxaliplatin 100 μM, TRAIL 200 ng/ml; FIG. 6a
Procedure: (§1) Survival and death assays. To evaluate apoptotic events the DNA staining and flow cytometry analysis were performed. The percentage of hypodiploid nuclei was evaluated as described in Stassi et al., Cancer Res. 2003, 63 (20):6784-90. Alternatively, human purified cancer cells were plated in 96-well plates in triplicate at 15,000 cells/well and cultured. The number of viable cells was detected by CellTiter Aqueous Assay Kit (Promega Corporation, WI, USA) following the instructions of manufacturer. HuT78 cells plated at […] and treated with CD95-activating antibody CH11 (200 ng/ml) were used as a positive control for cell death measurement.
(§2) To investigate the sensitivity of colon CSC to chemotherapeutic drugs, the viability of colon CSC spheroids exposed to cisplatinum (300 ng/ml) and oxaliplatin (100 μM) was measured, doses equivalent to those reached during cancer treatment in vivo. In addition, colon CSC were treated with the apoptosis-inducing death ligand TRAIL (200 ng/ml).

[2] = tested on: colon CSC; assay: Viability of colon CSC spheroids exposed to drugs; type: cell-based, human; conditions: cisplatinum 300 ng/ml, oxaliplatin 100 μM, TRAIL 200 ng/ml, FIG. 6a
Procedure: as §1, §2

[3] = tested on: colon cancer generated by CSC; assay: IL-4 neutralization in vivo, colon tumours generated by CSC; conditions: oxaliplatin i.p. once a week for 4 weeks, combined with control IgG; mice
Description: Tumours were allowed to grow for 10 days (size ˜0.2 cm^3) and then treated intra-tumourally with neutralising antibodies against IL-4 or control IgG twice a week for 3 weeks.

[4] = target: T1, human Interleukin4 (IL4) (Homo sapiens, UniProt P05112); assay: IL-4-pull down assay; type: binding; conditions: 4 μg protein immobilized to Streptactin Sepharose, 400 ng IL4, 60 min; FIG. 10
T1 sequence (P05112 25-153): B1 chain
Procedure: To test for specific IL-4 binding of IL4R-Fc and IL4R-IL13R-Fc, 4 μg of both proteins, respectively, were immobilized to Streptactin Sepharose via their Strep-Tag. The immobilized proteins were subsequently incubated for 60 min with 400 ng of recombinantly expressed human Interleukin4 (IL4) in a total volume of 400 μl phosphate buffered saline. Subsequently the beads were washed and bound proteins were specifically eluted with desthiobiotin in a total volume of 40 μl elution buffer. Eluted proteins were finally analysed via SDS-PAGE and Silver staining.

[5] = tested on: breast cancer stem cells; assay: Apoptosis of breast cancer spheres, combination with doxorubicin; type: cell-based; conditions: 10 μg pre-treatment 24 hrs, then 5 μM doxorubicin 24 hrs; for sensitisation for doxorubicin induced apoptosis compared with IL-4 specific antibody (positive control): FIG. 11B; for amount of apoptotic breast cancer stem cells: compared with Doxorubicin alone, FIG. 11A
Procedure: To test for the ability of IL4R-Fc and IL4R-IL13R-Fc to induce apoptosis, both proteins were added to the growth medium of breast cancer stem cells either alone or in combination with doxorubicin. […] The cells were stained with orange acridine/ethidium bromide (red: dead cells; green: viable cells).

[6] = tested on: primary colon cancer cells; assay: Primary colon cancer cell viability (MTS), combination with oxaliplatin; type: cell-based; conditions: 10 μg pre-treatment 24 hrs, then 100 μM oxaliplatin 24 hrs; FIG. 11C
Procedure: On primary colon cancer cells the IL4R-Fc and IL4R-IL13R-Fc constructs were tested in combination with oxaliplatin treatment. Primary colon cancer cells pre-treated with PBS (w/o) or 10 μg of IL4R-Fc, IL4R-IL13R-Fc or anti IL4-antibody for 24 hrs and successively exposed for another 24 hrs to 100 μM oxaliplatin. The graphs show the percentage of cell viability measured by MTS analysis (CellTiter 96, Aquos, Promega).

[7] = tested on: colon, breast, gastric and lung normal cells; assay: Cell growth of normal cells exposed to IL-4; type: cell-based, human; conditions: 20 ng/ml of IL-4; FIG. 3b
Procedure: (§3) Human primary cell purification. Normal and cancer tissues were digested for 2 hours with collagenase (1.5 mg/ml) (Gibco BRL., Grand Island, N.Y.) and hyaluronidase (20 μg/ml) (Sigma Chemical Co., St. Louis, Mo.) as previously described (1). Once digested, cells were maintained on plastic in DMEM medium (EuroClone Ltd., West York, UK) at 37° C. in a humidified atmosphere of 5% CO2. Following 12 further hours of culture, cancer cells were allowed to grow in monolayer for the immunocytochemistry or detached with trypsin+EDTA for functional, protein expression and gene transcript levels analyses. For colon and gastric cells culture, plastic was coated with[…] of collagen (Calbiochem GmbH, Darmstadt, Germany). […]
Survival and death assays. […] The percentage of hypodiploid nuclei was evaluated as described in Stassi et al., Cancer Res. 2003, 63 (20):6784-90. […] The number of viable cells was detected by CellTiter Aqueous Assay Kit (Promega Corporation, WI, USA) following the instructions of manufacturer. […]
In order to investigate the possible involvement of IL-4 on tumour cell survival, colon, breast, gastric and lung normal cells were exposed to 20 ng/ml of IL-4 and analyzed for cell growth.

[8] = tested on: cFLIP, PED/PEA-15, Bcl-xL and Bcl-2 in normal colon, breast, gastric and lung cells; assay: Anti-apoptotic protein expression in normal cells pre-incubated with IL-4; type: cell-based, human; conditions: gastric and lung cells pre-incubated with IL-4, FIG. 3c
Procedure: as §3
Protein isolation and western blotting analysis. […] Immunoblotting of Abs specific for actin (Ab-1, mouse IgM, Calbiochem, Darmstadt, Germany), CD95L (G2474, mouse IgG1, PharMingen, San Diego), CD95 (C-20, Santa Cruz Biotechnology), cFLIP (NF6 mouse IgG1, Alexis Biochemicals, Switzerland), PED/PEA-15 (rabbit IgG kindly provided by G. Condorelli), Bcl-2 (124, mouse IgG1, Upstate Biotechnology Inc.) and Bcl-XI (H-5, mouse IgG1, Santa Cruz Biotechnology) was detected by HRP-conjugated anti-mouse or anti-rabbit Abs (Amersham Biosciences UK Limited, England) and visualized with the chemiluminescence detection system (SuperSignal West Dura Extended duration Substrate, Pierce, Ill., USA). […]

Molecule | sensitivity in vitro (viability) [1] | sensitivity to drug-induced apoptosis (viability) [2] | binding of human IL-4 (pull down, SDS-PAGE and Silver staining) [4] | sensitisation for doxorubicin induced apoptosis compared with IL-4 specific antibody (positive control) [5] | amount of apoptotic breast cancer stem cells [5] | cell viability (MTS) in comparison with oxaliplatin treatment alone [6] | other results
N.N.[Cl][Pt][Cl] [cisplatinum] | some sensitivity | significantly resistant |  |  |  |  | 
O=C1[O][Pt]2([NH][C@@H]3CCCC[C@H]3[NH]2)[O]C1=O [oxaliplatin] | some sensitivity | significantly resistant |  |  |  |  | tumour size [3]: reduced tumour size
IL4R-Fc: shortened extracellular domain of IL-4-Receptor-alpha (aa1-aa224) fused to the Fc-part of human IGHG1, with Flexstreptag-II |  |  | specific binding | in the same range | clearly increased | reduced cell viability | 
IL4R-IL13R-Fc: IL-4-Receptor-alpha extracellular domain fused to IL13-receptor alpha extracellular domain and Fc-part of human IGHG1, with Flexstreptag-II |  |  | specific binding | in the same range | clearly increased | reduced cell viability | 
TRAIL | some sensitivity | significantly resistant |  |  |  |  | 
B1 |  |  |  |  |  |  | growth rate of colon, breast and lung normal cells [7]: significantly increased; protein levels of cFLIP, PED/PEA-15, Bcl-xL and Bcl-2 [8]: increased

Reference: patent US20090324616A1, “DIFFERENTIAL CYTOKINE EXPRESSION IN HUMAN CANCER” (priority 2006, published 2009)
